These results are taken from ChEMBL document CHEMBL4680141, “Novel benzimidazole-acrylonitrile hybrids and their derivatives: Design, synthesis and antimycobacterial activity” (2020).

Values after ≈ are worked out from the molar mass of the structure shown.

The first test has as its system Mycobacterium tuberculosis. Briefly: Antimycobacterial activity against Mycobacterium tuberculosis H37Rv assessed as inhibition of bacterial growth incubated for 7 days by MABA assay. As to conditions: 168 h, time 7 day. The class given is functional.
With `CN1CCN(c2ccc(/C=C(\C#N)c3nc4ccccc4[nH]3)cc2)CC1`, the MIC is above 25 µg/mL. Still for that read-out and setting: next, `COc1cccc(N2CCN(c3ccc(/C=C(\C#N)c4nc5ccccc5[nH]4)cc3)CC2)c1`: above 25 µg/mL; `N#C/C(=C\c1ccc(N2CCN(c3ccc(Cl)cc3)CC2)cc1)c1nc2ccccc2[nH]1`: above 25 µg/mL; `N#C/C(=C\c1ccc(N2CCN(Cc3ccccc3)CC2)cc1)c1nc2ccccc2[nH]1`: above 25 µg/mL. Consider `N#CC(Cc1ccc(N2CCN(c3ccccc3)CC2)cc1)c1nc2ccccc2[nH]1` (stereo not given), for which the MIC is above 25 µg/mL. Turning to `N#C/C(=C\c1ccc(N2CCN(c3ccc(Br)cc3)CC2)cc1)c1nc2ccccc2[nH]1`, the MIC was above 25 µg/mL.

As for `N#C/C(=C\c1ccc(N2CCN(c3ccc(F)cc3)CC2)cc1)c1nc2ccccc2[nH]1`, the MIC was above 25 µg/mL. Turning to `N#C/C(=C\c1ccc(N2CCN(C3CCCCC3)CC2)cc1)c1nc2ccccc2[nH]1`, the MIC is above 25 µg/mL. On the same count and under the same terms, next, `COc1ccc(N2CCN(c3ccc(CC(C#N)c4nc5ccccc5[nH]4)cc3)CC2)cc1` (stereo not given): above 25 µg/mL; `N#C/C(=C\c1ccc(N2CCN(c3cccc(Cl)c3)CC2)cc1)c1nc2ccccc2[nH]1`: above 25 µg/mL. As for `Cc1ccc(N2CCN(c3ccc(/C=C(\C#N)c4nc5ccccc5[nH]4)cc3)CC2)cc1`, the MIC worked out at 0.78 µg/mL (≈ 1.86 µM). Still for that read-out and setting: next, `Cc1ccc(N2CCN(c3ccc(CC(C#N)c4nc5ccccc5[nH]4)cc3)CC2)cc1` (stereo not given): above 25 µg/mL; `N#C/C(=C\c1ccc(N2CCN(Cc3ccc(F)cc3)CC2)cc1)c1nc2ccccc2[nH]1`: 25 µg/mL (≈ 57.1 µM). On the same count and under the same terms, next, `N#C/C(=C\c1ccc(N2CCN(c3ccccc3)CC2)cc1)c1nc2ccccc2[nH]1`: 6.25 µg/mL (≈ 15.4 µM); `CC(=O)N1CCN(c2ccc(/C=C(\C#N)c3nc4ccccc4[nH]3)cc2)CC1`: 12.5 µg/mL (≈ 33.7 µM); `COc1ccc(N2CCN(c3ccc(/C=C(\C#N)c4nc5ccccc5[nH]4)cc3)CC2)cc1`: 6.25 µg/mL (≈ 14.4 µM). Turning to `CC[C@@H](CO)NCCN[C@@H](CC)CO` [ETHAMBUTOL], the MIC was 1.56 µg/mL (≈ 7.64 µM). Consider `NNC(=O)c1ccncc1` [ISONIAZID], for which the MIC turned out to be 0.05 µg/mL (≈ 0.365 µM). Same read-out and setting: next, `CO[C@H]1/C=C/O[C@@]2(C)Oc3c(C)c(O)c4c(O)c(c(/C=N/N5CCN(C)CC5)c(O)c4c3C2=O)NC(=O)/C(C)=C\C=C\[C@H](C)[C@H](O)[C@@H](C)[C@@H](O)[C@@H](C)[C@H](OC(C)=O)[C@@H]1C` [RIFAMPIN]: 0.1 µg/mL (≈ 0.122 µM).

The subject of another test is Mycobacterium tuberculosis. Briefly: Antimycobacterial activity against Mycobacterium tuberculosis H37Rv assessed as inhibition of bacterial growth by MABA assay. Type of test: functional.
Details: not given
Turning to `N#C/C(=C\c1ccccc1)n1nnc2ccccc21`, the MIC amounted to 6.25 µg/mL (≈ 25.4 µM).

The next test deals with Mycobacterium tuberculosis. Briefly: Antimycobacterial activity against dormant form of Mycobacterium tuberculosis H37Rv assessed as log fold reduction in bacterial count at 10 ug/ml under nutrient starvation condition after 7 days by MPN assay. As to conditions: dose 10 µg/ml; time 7 day. Type of test: functional.
With `Cc1ccc(N2CCN(c3ccc(/C=C(\C#N)c4nc5ccccc5[nH]4)cc3)CC2)cc1`, the FC was determined as 2.8.

As for `O=C(O)c1cn(C2CC2)c2cc(N3CCNCC3)c(F)cc2c1=O` [CIPROFLOXACIN], the FC stood at 1.5.

Turning to `NNC(=O)c1ccncc1` [ISONIAZID], the FC was 1.5. On the same count and under the same terms, next, `COc1c(N2C[C@@H]3CCCN[C@@H]3C2)c(F)cc2c(=O)c(C(=O)O)cn(C3CC3)c12` [MOXIFLOXACIN]: 1.5; `CO[C@H]1/C=C/O[C@@]2(C)Oc3c(C)c(O)c4c(O)c(c(/C=N/N5CCN(C)CC5)c(O)c4c3C2=O)NC(=O)/C(C)=C\C=C\[C@H](C)[C@H](O)[C@@H](C)[C@@H](O)[C@@H](C)[C@H](OC(C)=O)[C@@H]1C` [RIFAMPIN]: 1.5.
